# Measured values published in PubChem BioAssay AID248 (DTP/NCI, 2004).
# Where “and” joins values, the source holds several entries; their conditions need not be identical. Identical values can stand only once. Inconclusive results and toxic doses are left out. Square brackets hold non-standard residues; d marks the D form. Peptide text beside a SMILES is read from it. * marks the point of attachment. ξ: configuration not given here. Pentanoyl = CCCCC(=O)*; ξP = O=C(O)C1CCCN1; Ava = NCCCCC(=O)O
# System: L1210 leukemia ip in BDF1 mice, survival T/C
# Assay: NCI In Vivo Anticancer Drug Screen. Data for tumor model L1210 Leukemia (intraperitoneal) in B6D2F1 (BDF1) mice
# Conditions: endpoint: mean survival time, higher = longer survival
# How it was run: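 Tumor cells were implanted, animals were treated, and survival was followed. The result divides the treated measurement by the vehicle-control measurement.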
# [1] = dose: 12.5 mg/kg/injection, schedule: Q04DX003 (ip), vehicle: Klucel (hydroxypropylcellulose) (HPC)
# [2] = dose: 25.0 mg/kg/injection, schedule: Q04DX003 (ip), vehicle: Klucel (hydroxypropylcellulose) (HPC)
# [3] = dose: 100.0 mg/kg/injection, schedule: Q04DX002 (ip), vehicle: Klucel (hydroxypropylcellulose) (HPC)
# [4] = dose: 200.0 mg/kg/injection, schedule: Q04DX002 (ip), vehicle: Klucel (hydroxypropylcellulose) (HPC)
# [5] = dose: 400.0 mg/kg/injection, schedule: Q04DX002 (ip), vehicle: Klucel (hydroxypropylcellulose) (HPC)
# [6] = dose: 50.0 mg/kg/injection, schedule: Q04DX003 (ip), vehicle: Klucel (hydroxypropylcellulose) (HPC)
# [7] = dose: 100.0 mg/kg/injection, schedule: Q01DX009 (ip), vehicle: Klucel (hydroxypropylcellulose) (HPC)
# [8] = dose: 100.0 mg/kg/injection, schedule: Q04DX003 (ip), vehicle: Klucel (hydroxypropylcellulose) (HPC)
# [9] = dose: 200.0 mg/kg/injection, schedule: Q01DX009 (ip), vehicle: Klucel (hydroxypropylcellulose) (HPC)
# [10] = dose: 200.0 mg/kg/injection, schedule: Q04DX003 (ip), vehicle: Klucel (hydroxypropylcellulose) (HPC)
# [11] = dose: 10.0 mg/kg/injection, schedule: Q01DX001 (ip), vehicle: acetone
# [12] = dose: 20.0 mg/kg/injection, schedule: Q01DX001 (ip), vehicle: acetone
# [13] = dose: 100.0 mg/kg/injection, schedule: Q01DX001 (ip), vehicle: saline
# [14] = dose: 200.0 mg/kg/injection, schedule: Q01DX001 (ip), vehicle: saline
# [15] = dose: 400.0 mg/kg/injection, schedule: Q01DX001 (ip), vehicle: saline
# [16] = dose: 100.0 mg/kg/injection, schedule: Q04DX003 (ip), vehicle: saline with Tween-80
# [17] = dose: 200.0 mg/kg/injection, schedule: Q04DX003 (ip), vehicle: saline with Tween-80
# [18] = dose: 400.0 mg/kg/injection, schedule: Q04DX003 (ip), vehicle: saline with Tween-80
compound,measurement,setting,value
O=C(O)/C=C/[P+](c1ccccc1)(c1ccccc1)c1ccccc1,T/C,"dose: 5.0 mg/kg/injection, schedule: Q01DX001 (ip), vehicle: saline",101 % of control
same,T/C,"dose: 10.0 mg/kg/injection, schedule: Q01DX001 (ip), vehicle: saline",106 % of control
same,T/C,"dose: 20.0 mg/kg/injection, schedule: Q01DX001 (ip), vehicle: saline",101 % of control
N#Cc1nc2ccccc2nc1C#N,T/C,"dose: 12.5 mg/kg/injection, schedule: Q01DX009 (ip), vehicle: Klucel (hydroxypropylcellulose) (HPC)",102 % of control
same,T/C,[1],97 % of control
same,T/C,"dose: 25.0 mg/kg/injection, schedule: Q01DX009 (ip), vehicle: Klucel (hydroxypropylcellulose) (HPC)",102 % of control
same,T/C,[2],88 % of control
c1ccc(Cc2ccccc2)cc1,T/C,[3],101 % of control
same,T/C,[4],105 % of control
same,T/C,[5],92 % of control
CC1(C)C2(c3ccccc3)C3C=CC3C12c1ccccc1 (configuration not stated),T/C,[3],109 % of control
same,T/C,[4],112 % of control
same,T/C,[5],102 % of control
COc1ccc(SC2CCCCC2OS(C)(=O)=O)cc1 (configuration not stated),T/C,"dose: 50.0 mg/kg/injection, schedule: Q01DX009 (ip), vehicle: Klucel (hydroxypropylcellulose) (HPC)",107 % of control
same,T/C,[6],102 % of control
same,T/C,"dose: 100.0 mg/kg/injection, schedule: Q01DX001 (ip), vehicle: Klucel (hydroxypropylcellulose) (HPC)",106 % of control
same,T/C,[7],109 % of control
same,T/C,[8],106 % of control
same,T/C,"dose: 200.0 mg/kg/injection, schedule: Q01DX001 (ip), vehicle: Klucel (hydroxypropylcellulose) (HPC)",95 % of control
same,T/C,[9],98 % of control
same,T/C,[10],104 % of control
CCC1(CC2CCCN(C)C2)c2ccccc2Sc2ccccc21 (configuration not stated),T/C,"dose: 8.0 mg/kg/injection, schedule: Q01DX015 (ip), vehicle: carboxymethylcellulose (CMC)",105 % of control
same,T/C,"dose: 16.0 mg/kg/injection, schedule: Q01DX015 (ip), vehicle: carboxymethylcellulose (CMC)",94 % of control
same,T/C,"dose: 32.0 mg/kg/injection, schedule: Q01DX015 (ip), vehicle: carboxymethylcellulose (CMC)",91 % of control
same,T/C,"dose: 64.0 mg/kg/injection, schedule: Q01DX015 (ip), vehicle: carboxymethylcellulose (CMC)",103 % of control and 110 % of control
CCCCSP(=O)(Cc1ccccc1)SCCCC,T/C,[1],102 % of control
same,T/C,[2],95 % of control
same,T/C,[6],97 % of control
O=C(O)c1ccc(Br)cc1.[Ni],T/C,"dose: 25.0 mg/kg/injection, schedule: Q04DX002 (ip), vehicle: gum acacia",100 % of control
same,T/C,"dose: 50.0 mg/kg/injection, schedule: Q04DX002 (ip), vehicle: gum acacia",101 % of control
CN(C)c1ccc(/C=N/NC=O)c(Cl)c1,T/C,[11],103 % of control
same,T/C,[12],110 % of control
same,T/C,"dose: 40.0 mg/kg/injection, schedule: Q01DX001 (ip), vehicle: acetone",95 % of control
CCOc1ccc(N2CSC(=S)N(c3ccc(OCC)cc3)C2)cc1,T/C,[7],96 % of control
same,T/C,[8],92 % of control
same,T/C,[9],99 % of control
same,T/C,[10],92 % of control
same,T/C,"dose: 400.0 mg/kg/injection, schedule: Q04DX003 (ip), vehicle: Klucel (hydroxypropylcellulose) (HPC)",92 % of control
Cc1ccc(-c2ccns2)cc1,T/C,"dose: 50.0 mg/kg/injection, schedule: Q04DX003 (ip), vehicle: saline",105 % of control
same,T/C,[13],100 % of control
same,T/C,"dose: 100.0 mg/kg/injection, schedule: Q04DX003 (ip), vehicle: saline",108 % of control
same,T/C,[14],104 % of control
same,T/C,"dose: 200.0 mg/kg/injection, schedule: Q04DX003 (ip), vehicle: saline",103 % of control
same,T/C,[15],104 % of control
CC(=N)Oc1ccccc1,T/C,"dose: 75.0 mg/kg/injection, schedule: Q01DX001 (ip), vehicle: Klucel (hydroxypropylcellulose) (HPC)",101 % of control
same,T/C,"dose: 150.0 mg/kg/injection, schedule: Q01DX001 (ip), vehicle: Klucel (hydroxypropylcellulose) (HPC)",106 % of control
same,T/C,"dose: 300.0 mg/kg/injection, schedule: Q01DX001 (ip), vehicle: Klucel (hydroxypropylcellulose) (HPC)",102 % of control
O=[N+]([O-])C1CC=CCC1C(Cl)(Cl)Cl (configuration not stated),T/C,"dose: 5.0 mg/kg/injection, schedule: Q04DX003 (ip), vehicle: saline sonified",95 % of control
same,T/C,"dose: 10.0 mg/kg/injection, schedule: Q04DX003 (ip), vehicle: saline sonified",110 % of control
same,T/C,"dose: 20.0 mg/kg/injection, schedule: Q04DX003 (ip), vehicle: saline sonified",98 % of control
CCCCCC1SC1CC1SC1CCCCCCCC(=O)N(CCCC)CCCC (configuration not stated),T/C,"dose: 30.0 mg/kg/injection, schedule: Q01DX001 (ip), vehicle: saline",102 % of control
same,T/C,[13],96 % of control
same,T/C,"dose: 300.0 mg/kg/injection, schedule: Q01DX001 (ip), vehicle: saline",89 % of control
O=C(O)c1ccccc1/C=C1/Nc2ccccc2C1=O,T/C,[11],102 % of control
same,T/C,[12],94 % of control
CCOC(=O)C1CC2CC(C1=O)C2(C)C (configuration not stated),T/C,[16],96 % of control
same,T/C,[17],101 % of control
same,T/C,[18],93 % of control
CCOC(=O)c1ccc(NC(=O)OC2CCCC2)cc1,T/C,[7],100 % of control
same,T/C,[9],101 % of control
same,T/C,"dose: 400.0 mg/kg/injection, schedule: Q01DX009 (ip), vehicle: Klucel (hydroxypropylcellulose) (HPC)",92 % of control
CCN(CC)CCOc1ccc(C(=O)/C(=C/c2ccc(OC)cc2)c2ccccc2)cc1,T/C,"dose: 100.0 mg/kg/injection, schedule: Q04DX003 (sc), vehicle: olive oil, sesame oil, peanut oil",100 % of control
same,T/C,"dose: 200.0 mg/kg/injection, schedule: Q04DX003 (sc), vehicle: olive oil, sesame oil, peanut oil",96 % of control
same,T/C,"dose: 400.0 mg/kg/injection, schedule: Q04DX003 (sc), vehicle: olive oil, sesame oil, peanut oil",108 % of control
CCCCC(=O)NCC(=O)N1CCCC1C(=O)NCCCCC(=O)OC (configuration not stated) (Pentanoyl-Gly-[ξP]-[Ava]-OMe),T/C,[13],98 % of control
same,T/C,[14],95 % of control
same,T/C,[15],95 % of control
C/C=C/C=C\COC(=O)C(C)(C)CCC,T/C,"dose: 100.0 mg/kg/injection, schedule: Q01DX009 (ip), vehicle: saline with Tween-80",90 % of control
same,T/C,"dose: 100.0 mg/kg/injection, schedule: Q04DX002 (ip), vehicle: saline with Tween-80",98 % of control
same,T/C,"dose: 100.0 mg/kg/injection, schedule: Q04DX002 (ip), vehicle: saline",96 % of control
same,T/C,"dose: 200.0 mg/kg/injection, schedule: Q01DX009 (ip), vehicle: saline with Tween-80",90 % of control
same,T/C,"dose: 200.0 mg/kg/injection, schedule: Q04DX002 (ip), vehicle: saline with Tween-80",95 % of control
same,T/C,"dose: 200.0 mg/kg/injection, schedule: Q04DX002 (ip), vehicle: saline",103 % of control
same,T/C,"dose: 400.0 mg/kg/injection, schedule: Q01DX009 (ip), vehicle: saline with Tween-80",93 % of control
same,T/C,"dose: 400.0 mg/kg/injection, schedule: Q04DX002 (ip), vehicle: saline with Tween-80",95 % of control
same,T/C,"dose: 800.0 mg/kg/injection, schedule: Q04DX002 (ip), vehicle: saline with Tween-80",95 % of control
NC(N)=NCCS(=O)(=O)Nc1ccc(Nc2c3ccccc3nc3cc([N+](=O)[O-])ccc23)cc1,T/C,"dose: 0.75 mg/kg/injection, schedule: Q01DX009 (ip), vehicle: water",121 % of control
same,T/C,"dose: 6.0 mg/kg/injection, schedule: Q01DX009 (ip), vehicle: water",163 % of control
same,T/C,"dose: 25.0 mg/kg/injection, schedule: Q04DX003 (ip), vehicle: water",157 % of control
same,T/C,"dose: 50.0 mg/kg/injection, schedule: Q04DX003 (ip), vehicle: water",175 % of control
COc1cc(Nc2nc(N)ncc2N)cc(OC)c1OC,T/C,[16],95 % of control
same,T/C,[17],98 % of control
same,T/C,[18],92 % of control
S=c1sc2ccccc2n1CCNc1ccccc1,T/C,"dose: 50.0 mg/kg/injection, schedule: Q01DX001 (ip), vehicle: carboxymethylcellulose (CMC)",96 % of control
same,T/C,"dose: 100.0 mg/kg/injection, schedule: Q01DX001 (ip), vehicle: carboxymethylcellulose (CMC)",100 % of control
same,T/C,"dose: 200.0 mg/kg/injection, schedule: Q01DX001 (ip), vehicle: carboxymethylcellulose (CMC)",100 % of control
same,T/C,"dose: 400.0 mg/kg/injection, schedule: Q01DX001 (ip), vehicle: carboxymethylcellulose (CMC)",89 % of control
